# Results reported in PubChem BioAssay AID1159564 (GlaxoSmithKline (GSK), 2015).
# Activity calls are given as the source filed them. The rule behind the calls is not given here.
# Test system: L. donovani-infected THP-1 macrophages, intracellular amastigote imaging
# Assay: intracellular L. donovani amastigote inhibition, imaging, THP-1 host macrophages, host toxicity (AID 1159564)
# [1] = measured here: THP-1 host cell toxicity
# [2] = measured here: amastigotes per macrophage
SMILES,IC50,IC50 [1] [µM],IC50 [2] [µM]
O=C(Nc1cccc(S(=O)(=O)Nc2ccc(Br)cc2)c1)c1ccc([N+](=O)[O-])s1,1 µM,10,0.79
CN(Cc1nc2c(C(=O)N3CCN(Cc4ccccc4)CC3)cccc2[nH]1)C1CCCc2cccnc21 (stereo not given),1.3 µM,10,0.79
N#Cc1c(Oc2cccc(Cl)c2)cccc1[N+](=O)[O-],10 µM,> 50,7.9
Cc1cc(N(C)C)nc2ccc(Cc3cnc(N)nc3N)cc12,32 µM,40,40
COc1ccc(-c2cnc(NC(=O)c3cc(-c4ccccn4)n[nH]3)n2C)cc1,1 µM,> 50,0.79
O=C(CSc1ccc(-c2ccccn2)nn1)Nc1ccc(Cl)cc1,> 50 µM (inactive),> 50,> 50
CCCN(Cc1ccc(OC)c(OC)c1)Cc1cc(=O)c2c(C)cc(C)cc2[nH]1,25 µM,5,20
OC1CCC(Nc2nccc(-c3sc(C4CCOCC4)nc3-c3ccc(F)c(F)c3)n2)CC1 (stereo not given),5 µM,20,2.5
O=C(NCc1ccc(Cl)cc1)C1CN(C(=O)c2ccc(F)cc2)CCS1 (stereo not given),> 50 µM (inactive),> 50,> 50
CN(Cc1nc2ccc(C(=O)NCC3CCCCC3)cc2[nH]1)C1CCCc2cccnc21 (stereo not given),0.5 µM,6.3,0.4
c1ccc(CCNCc2cncc3nc(-c4cnccn4)n(C4CCCCC4)c23)cc1,> 50 µM (inactive),> 50,> 50
O=c1[nH]ccc2ccc(-c3ccncc3)cc12,> 50 µM (inactive),40,20
CN(C)Cc1cccc(Nc2nccc(-c3ccc(NCCN)c(C#N)c3)n2)c1,1.3 µM,6.3,0.5
CC(C)S(=O)(=O)c1ccc(-c2cnc(N)c3cc(-c4ccnc(N)n4)ccc23)cc1,1.3 µM,2.5,0.5
CCC(CC)C(=O)Nc1cccc(C(=O)Nc2nnc(C3CCCCC3)s2)c1,> 50 µM (inactive),> 50,> 50
O=C(CN(Cc1ccccn1)Cc1ccccn1)NC1Cc2ccccc2C1,5 µM,> 79,5
COc1ccc(Cc2nc(-c3ncc4cccnc4c3O)n[nH]2)cc1OC,3.2 µM,20,2.5
CCC(=O)N1N=C(c2ccc3c(c2)CCCC3)Sc2c1ncn2C(=O)CC,3.2 µM,> 50,2.5
CN(C)c1ncc(-c2cncn2CCOc2ccc(Cl)cc2)cn1,> 50 µM (inactive),> 50,> 50
CCN(CC)c1ccc(S(=O)(=O)N(CC)CC)c2nonc12,0.4 µM,16,0.13
CC(=O)Nc1cccc(Nc2ncnc3nc[nH]c23)c1,> 50 µM (inactive),10,40
O=c1cc(NCCCNCc2cc(C(F)(F)F)cs2)[nH]c2ccccc12,40 µM,20,25
Nc1ncnc2c1ncn2[C@@H]1O[C@H](CO)C[C@H]1O,> 50 µM (inactive),> 50,> 50
NCC(Cc1ccccc1)NC(=O)c1cnc(-c2c[nH]c3ncccc23)s1 (stereo not given),16 µM,6.3,13
CN(Cc1ccc(C(N)=O)cc1)C(c1ccc(F)cc1)c1cccnc1 (stereo not given),> 50 µM (inactive),> 50,> 50

SMILES,IC50,IC50 [1] [µM],IC50 [2] [µM]
NC(=O)c1ncc(N[C@@H]2CCCNC2)nc1Nc1cccc(Cl)c1,0.79 µM,2,0.5
O=C(NCCc1csc(-c2ccc(F)cc2)n1)c1ccco1,> 50 µM (inactive),> 50,> 50
O=C(NC(c1ccc(Cl)cc1)c1cnccn1)C1CCN(C(=O)Nc2cccc(C(F)(F)F)c2)CC1 (stereo not given),> 50 µM (inactive),40,> 50
COc1ccc(C(=O)NC2CCN(CCn3c(=O)ccc4ncc(F)cc43)CC2)cc1Cl,> 50 µM (inactive),> 50,16
O=[N+]([O-])c1ccc(-c2nnn(-c3ccc(Cl)cc3)n2)o1,> 50 µM (inactive),> 50,> 50
O=C(NCCCn1cnc2ccccc21)c1ccc(NC(=O)c2ccco2)cc1,> 50 µM (inactive),> 50,13
CNC(=O)C1Cc2ccccc2N1C(=O)COc1cccc(OC)c1 (stereo not given),> 50 µM (inactive),> 50,> 50
CC(C)c1cc(Nc2cc(Cc3ccccc3)nc(NC3CCC(O)CC3)n2)n[nH]1 (stereo not given),0.063 µM,0.02,0.04
Cc1cccc(NS(=O)(=O)c2cnc3sc(C)cn3c2=O)c1,> 50 µM (inactive),> 50,5
Cc1nn(-c2ccccc2)nc1CNC(=O)CN(Cc1ccccn1)Cc1ccccn1,5 µM,63,5
CCN(CC)c1ncc(C(=O)c2ccc([N+](=O)[O-])o2)s1,10 µM,6.3,10
CCCc1nc2nc(N)nc(N)c2cc1CC,40 µM,> 50,40
COCc1cnc2c(c1SCc1c(F)cccc1Cl)c(=O)n(C)c(=O)n2C,5 µM,> 50,5
C[C@@H](Oc1cc(-n2cnc3ccc(C(O)CO)cc32)sc1C(N)=O)c1ccccc1C(F)(F)F (stereo not given in full),20 µM,16,13
CS(=O)(=O)c1cccc(-c2cnc(N)c3c(-c4ccc(CO)cc4)csc23)c1,10 µM,> 50,7.9
Cc1nc2c(-c3nc(-c4ccc(N)cc4)n[nH]3)cccn2c1C,2 µM,13,1.6
Cc1cc2nc(N3CC[C@H]3C(N)=O)nc(Nc3cc(C4CC4)[nH]n3)c2s1,2 µM,0.79,1.3
Cc1ccc2onc(Nc3ccnc(Nc4cccc(S(C)(=O)=O)c4)n3)c2c1,2 µM,20,1
CCOc1ccc(OCC(=O)N2c3ccccc3CC2C(=O)NC)cc1 (stereo not given),> 50 µM (inactive),> 50,> 50
CCOc1cnn(C)c(=O)c1Nc1ccc(C(=O)NCc2ccc(F)cc2)cc1,> 50 µM (inactive),32,> 50
O=C(c1ccccc1)N1CCC(C(=O)N2CCC(Oc3ccccc3Cl)CC2)CC1,> 50 µM (inactive),> 50,32
OCC1CCCCN1c1cc(-c2ccccn2)nc(Nc2ccccc2)n1 (stereo not given),1.3 µM,20,1
Cc1nc(-c2ccncc2)ncc1C(C)NC(=O)c1ccc(Cl)s1 (stereo not given),> 50 µM (inactive),> 50,> 50
Cc1ccc(Nc2nc(N)nc(CNC(c3nc4ccccc4[nH]3)C(C)C)n2)cc1 (stereo not given),2 µM,25,1.3
O=C(NCCc1cccnc1)c1csc(-c2ccccc2)n1,> 50 µM (inactive),> 50,> 50
